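Exposure lasted 48 hours, with cells grown in 96-well plates and compounds tested at five concentrations. The concentration for 50% growth inhibition is given as GI50.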 The source made the active and inactive calls. Cut-off read from the data, not from the text of the source: active = GI50 up to about 1.1 µM and inactive = higher.
Experiments:
Assay in all cases: NCI-60 cell line screen, 48 h
K562 = system: K562
SF-268 = system: SF-268
U-251 = system: U-251
DU-145 = system: DU-145
SNB-19 = system: SNB-19
MDA-N = system: MDA-N
HCT-116 = system: HCT-116
A549 = system: A549
SK-MEL-28 = system: SK-MEL-28
CAKI-1 = system: CAKI-1
BT-549 = system: BT-549
HL-60 = system: HL-60
OVCAR-3 = system: OVCAR-3
SN12C = system: SN12C
IGROV-1 = system: IGROV-1
RPMI-8226 = system: RPMI-8226
OVCAR-4 = system: OVCAR-4
SW-620 = system: SW-620
Malme-3M = system: Malme-3M
KM12 = system: KM12
NCI/ADR-RES = system: NCI/ADR-RES
T47D = system: T47D
HCT-15 = system: HCT-15
UO-31 = system: UO-31
HCC 2998 = system: HCC 2998
ACHN = system: ACHN
SNB-75 = system: SNB-75
NCI-H522 = system: NCI-H522
MOLT-4 = system: MOLT-4
OVCAR-8 = system: OVCAR-8
HT-29 = system: HT-29
RXF 393 = system: RXF 393
HOP-62 = system: HOP-62
PC-3 = system: PC-3
NCI-H23 = system: NCI-H23
UACC-62 = system: UACC-62
SF-295 = system: SF-295
SK-MEL-5 = system: SK-MEL-5
786-0 = system: 786-0
M14 = system: M14
A498 = system: A498
UACC-257 = system: UACC-257
NCI-H460 = system: NCI-H460
COLO 205 = system: COLO 205
MCF7 = system: MCF7
Hs-578T = system: Hs-578T
MDA-MB-435 = system: MDA-MB-435
OVCAR-5 = system: OVCAR-5
SR = system: SR
LOX IMVI = system: LOX IMVI
SK-MEL-2 = system: SK-MEL-2
CCRF-CEM = system: CCRF-CEM
HOP-92 = system: HOP-92
EKVX = system: EKVX
SF-539 = system: SF-539
TK-10 = system: TK-10
NCI-H226 = system: NCI-H226
SK-OV-3 = system: SK-OV-3
MDA-MB-231 = system: MDA-MB-231

## CC(=O)Oc1ccc2c(c1)CC[C@@H]1C2[C@@H](O[N+](=O)[O-])C[C@@]2(C)C1CC[C@@H]2O[N+](=O)[O-] (stereo not given in full)
K562
  GI50: 6.5 µM (inactive)
SF-268
  GI50: 13.3 µM (inactive)
U-251
  GI50: 14 µM (inactive)
DU-145
  GI50: 14.2 µM (inactive)
SNB-19
  GI50: 16.9 µM (inactive)
MDA-N
  GI50: 14.3 µM (inactive)
HCT-116
  GI50: 10.2 µM (inactive)
A549
  GI50: 13.2 µM (inactive)
SK-MEL-28
  GI50: 14.5 µM (inactive)
CAKI-1
  GI50: 19.3 µM (inactive)
BT-549
  GI50: 17.6 µM (inactive)
HL-60
  GI50: 16.4 µM (inactive)
OVCAR-3
  GI50: 13.2 µM (inactive)
SN12C
  GI50: 15.5 µM (inactive)
IGROV-1
  GI50: 15.1 µM (inactive)
RPMI-8226
  GI50: 7.41 µM (inactive)
OVCAR-4
  GI50: 16.3 µM (inactive)
SW-620
  GI50: 16.1 µM (inactive)
Malme-3M
  GI50: 13.7 µM (inactive)
KM12
  GI50: 14.1 µM (inactive)
NCI/ADR-RES
  GI50: 14.3 µM (inactive)
T47D
  GI50: 6.97 µM (inactive)
HCT-15
  GI50: 13.3 µM
UO-31
  GI50: 12.3 µM (inactive)
HCC 2998
  GI50: 1.63 µM (inactive)
ACHN
  GI50: 8.69 µM (inactive)
SNB-75
  GI50: 13.5 µM (inactive)
NCI-H522
  GI50: 11.1 µM (inactive)
MOLT-4
  GI50: 10.4 µM (inactive)
OVCAR-8
  GI50: 14.6 µM (inactive)
HT-29
  GI50: 16.4 µM (inactive)
RXF 393
  GI50: 11.5 µM (inactive)
HOP-62
  GI50: 6.82 µM (inactive)
PC-3
  GI50: 10.5 µM (inactive)
NCI-H23
  GI50: 12.7 µM (inactive)
UACC-62
  GI50: 13.9 µM (inactive)
SF-295
  GI50: 10.7 µM (inactive)
SK-MEL-5
  GI50: 9.75 µM (inactive)
786-0
  GI50: 14.5 µM (inactive)
M14
  GI50: 14 µM (inactive)
A498
  GI50: 18.6 µM (inactive)
UACC-257
  GI50: 11.1 µM (inactive)
NCI-H460
  GI50: 12.8 µM (inactive)
COLO 205
  GI50: 16.8 µM (inactive)
MCF7
  GI50: 9.42 µM (inactive)
Hs-578T
  GI50: 19.1 µM (inactive)
MDA-MB-435
  GI50: 15.5 µM (inactive)
OVCAR-5
  GI50: 19.4 µM (inactive)
SR
  GI50: 5.31 µM (inactive)
LOX IMVI
  GI50: 13.7 µM (inactive)
SK-MEL-2
  GI50: 15.4 µM (inactive)
CCRF-CEM
  GI50: 9.1 µM (inactive)
HOP-92
  GI50: 10.1 µM (inactive)
EKVX
  GI50: 12.3 µM (inactive)
SF-539
  GI50: 18.2 µM (inactive)
TK-10
  GI50: 19.8 µM (inactive)

## c1ccc([P+](CCNCCNCC[P+](c2ccccc2)(c2ccccc2)c2ccccc2)(c2ccccc2)c2ccccc2)cc1
SF-268
  GI50: > 100 µM (inactive)
U-251
  GI50: > 100 µM (inactive)
DU-145
  GI50: > 100 µM (inactive)
SNB-19
  GI50: > 100 µM (inactive)
MDA-N
  GI50: > 100 µM (inactive)
HCT-116
  GI50: > 100 µM (inactive)
A549
  GI50: > 100 µM (inactive)
SK-MEL-28
  GI50: > 100 µM (inactive)
BT-549
  GI50: > 100 µM (inactive)
OVCAR-3
  GI50: > 100 µM (inactive)
SN12C
  GI50: > 100 µM (inactive)
IGROV-1
  GI50: > 100 µM (inactive)
RPMI-8226
  GI50: > 100 µM (inactive)
OVCAR-4
  GI50: > 100 µM (inactive)
SW-620
  GI50: > 100 µM (inactive)
KM12
  GI50: > 100 µM (inactive)
NCI/ADR-RES
  GI50: > 100 µM (inactive)
T47D
  GI50: > 100 µM (inactive)
HCT-15
  GI50: > 100 µM
UO-31
  GI50: > 100 µM (inactive)
HCC 2998
  GI50: > 100 µM (inactive)
ACHN
  GI50: > 100 µM (inactive)
SNB-75
  GI50: > 100 µM (inactive)
MOLT-4
  GI50: > 100 µM (inactive)
OVCAR-8
  GI50: > 100 µM (inactive)
HT-29
  GI50: > 100 µM (inactive)
RXF 393
  GI50: > 100 µM (inactive)
HOP-62
  GI50: > 100 µM (inactive)
NCI-H23
  GI50: > 100 µM (inactive)
UACC-62
  GI50: > 100 µM (inactive)
SF-295
  GI50: > 100 µM (inactive)
SK-MEL-5
  GI50: > 100 µM (inactive)
786-0
  GI50: > 100 µM (inactive)
M14
  GI50: > 100 µM (inactive)
A498
  GI50: > 100 µM (inactive)
UACC-257
  GI50: > 100 µM (inactive)
NCI-H460
  GI50: > 100 µM (inactive)
COLO 205
  GI50: > 100 µM (inactive)
MCF7
  GI50: > 100 µM (inactive)
NCI-H226
  GI50: > 100 µM (inactive)
Hs-578T
  GI50: > 100 µM (inactive)
MDA-MB-435
  GI50: > 100 µM (inactive)
OVCAR-5
  GI50: > 100 µM (inactive)
SK-MEL-2
  GI50: > 100 µM (inactive)
EKVX
  GI50: > 100 µM (inactive)
SF-539
  GI50: > 100 µM (inactive)
SK-OV-3
  GI50: > 100 µM (inactive)
MDA-MB-231
  GI50: > 100 µM (inactive)
TK-10
  GI50: > 100 µM (inactive)

— ChEMBL document CHEMBL1201862, “PubChem BioAssay data set” (2004)
